For four molecules, Activity and Ki results are on record in ChEMBL document CHEMBL1147805, “A new non-azole inhibitor of ABA 8'-hydroxylase: effect of the hydroxyl group substituted for geminal methyl groups in the six-membered ring” (Bioorg Med Chem Lett, 2006).

One series concerns Radish. Put plainly: Induction of drought-stress tolerance in radish seedlings at 400 uM. Conditions: Raphanus sativus. It counts as functional, organism-based.
Series [1] has as its target T1, Abscisic acid 8'-hydroxylase 3 (Arabidopsis thaliana, UniProt Q9FH76).
T1 sequence (Q9FH76 whole entry): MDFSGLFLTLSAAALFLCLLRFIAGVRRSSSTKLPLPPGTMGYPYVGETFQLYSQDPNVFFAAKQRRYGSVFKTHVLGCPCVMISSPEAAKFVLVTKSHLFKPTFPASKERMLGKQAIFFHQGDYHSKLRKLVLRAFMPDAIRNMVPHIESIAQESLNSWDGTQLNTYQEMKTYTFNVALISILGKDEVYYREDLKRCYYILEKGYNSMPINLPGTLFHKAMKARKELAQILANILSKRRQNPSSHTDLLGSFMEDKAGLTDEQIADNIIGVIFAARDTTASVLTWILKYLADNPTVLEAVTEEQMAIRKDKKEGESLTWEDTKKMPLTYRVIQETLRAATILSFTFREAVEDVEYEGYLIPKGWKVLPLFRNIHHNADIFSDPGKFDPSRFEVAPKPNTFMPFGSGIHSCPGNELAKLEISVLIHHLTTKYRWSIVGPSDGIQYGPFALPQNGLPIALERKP
Put plainly: Inhibition of Arabidopsis recombinant CYP707A3.

The target of series [2] is T1, Abscisic acid 8'-hydroxylase 3. Put plainly: Activity against CYP707A3 by rice seedling elongation assay at 30 uM. It counts as functional. Conditions: oryza sativa.
Series [3] has the same target. Put plainly: Activity against CYP707A3 by rice seedling elongation assay at 1 uM. To be noted: oryza sativa. It counts as functional.

Molecules are shown by their SMILES. Activity calls are given as the source filed them. The rule behind the calls is not given here.

Regarding `C[C@@H]1CCC[C@H](O)[C@@]1(O)/C=C/C=C\C(=O)O` (racemic), the result in the series on Radish was inactive.

A word on the Ki: it is a measure of affinity in units of concentration, obtained from inhibition or displacement. Take `C[C@H]1CCC[C@H](O)[C@@]1(O)/C=C/C=C\C(=O)O`: the Ki in series [1] was 140 nM. Moreover, the result in the series with Radish was Active. This molecule had an Activity in series [2] of 96%.

For the molecule `C[C@H]1CCCC(C)(C)[C@@]1(O)/C=C/C=C\C(=O)O`, the Ki in series [1] came out at 1400 nM. As to `CC1=CC(=O)CC(C)(C)C1(O)/C=C/C(C)=C\C(=O)O` (stereo unspecified) [ABSCISIC ACID], in series [3], the Activity came out at 22%.
